The EC50 is the midpoint of the concentration-response curve.

Structures are written as SMILES. In brackets after ≈: the same amount, converted by molar mass. Like-named read-outs stand apart in the source and are kept apart here.

Common to all, as to format: cell-based
For one experiment, the system named is HIV-1(IIIB) (WT). Description: microbe, parasite or virus in culture. Particulars: HIV-1 (III8), Table 5. How it is done:
(§1) CEM cells were suspended at 250,000 cells per ml of culture medium and infected with wild-type HIV-I(IIIB) or mutant HIV-1 strains at 100 50% cell culture infective doses per ml. Then 100 μl of the infected cell suspensions was added to 200-μl microtiter plate wells containing 100 μl of an appropriate dilution of the test compounds. After 4 days incubation at 37° C., the cell cultures were examined for syncytium formation.

Another experiment deals with HIV-1/I(0.1) 103-Asn. Description: Sensitivity of mutant HIV-1 strain in CEM cell cultures. The conditions noted are these: Table 5. How it is done: as §1
The subject of the next experiment is HIV-1/II(0.1) 100-Ile. Described as above. Particulars: Table 5. Here is the method: as §1
A further experiment relates to HIV-1/III(0.1) 103-Asn. Described as above. The conditions noted are these: Table 5. Here is the method:
as §1

The test system of the next experiment is HIV-1/IV(0.1) 103-Thr. Described as above. Particulars: Table 5. Here is the method: as §1
Experiment [1] deals with HIV-1/V(0.1) 101-Ile + 141-Glu. The experiment is described as above. Particulars: Table 5. Here is the method:
as §1

In the next experiment the test system is HIV-1/V(0.5) 103-Asn. The description is as above. The conditions noted are these: Table 5. How it is done: as §1
Where [2] appears, read: Human immunodeficiency virus 1, CCRF-CEM, read-out: EC50.

For `CCOCn1c(Cc2ccccc2)c(C(C)C)c(=O)[nH]c1=O` [MKC-442], the EC50 in the experiment on HIV-1(IIIB) (WT) came out at 0.0006 mg/L (≈ 0.00198 µM); in the experiment on HIV-1/I(0.1) 103-Asn it was 0.08 mg/L (≈ 0.265 µM); with HIV-1/II(0.1) 100-Ile, 0.40 mg/L (≈ 1.32 µM); in the experiment with HIV-1/III(0.1) 103-Asn it was 0.01 mg/L (≈ 0.0331 µM); with HIV-1/IV(0.1) 103-Thr it was 0.32 mg/L (≈ 1.06 µM); in experiment [1], 0.008 mg/L (≈ 0.0265 µM). The compound also showed a concentration giving a half-maximal response (EC50) in the experiment with HIV-1/V(0.5) 103-Asn of 0.35 mg/L (≈ 1.16 µM).

For `Nc1ccn([C@@H]2CS[C@H](CO)O2)c(=O)n1` [Compound 3TC, (-)-2'-deoxy-3'-thiacytidine], the concentration for a half-maximal effect (EC50) was found to be 0.008 mg/L (≈ 0.0349 µM) with HIV-1(IIIB) (WT) (Human immunodeficiency virus 1, IIIB, CCRF-CEM, read-out: EC50); 0.03 mg/L (≈ 0.131 µM) in the experiment on HIV-1/I(0.1) 103-Asn (setting [2]); 0.05 mg/L (≈ 0.218 µM) with HIV-1/II(0.1) 100-Ile (setting [2]); 0.03 mg/L (≈ 0.131 µM) in the experiment with HIV-1/III(0.1) 103-Asn (setting [2]); 0.03 mg/L (≈ 0.131 µM) in the experiment on HIV-1/IV(0.1) 103-Thr (setting [2]); 0.04 mg/L (≈ 0.174 µM) in experiment [1] (setting [2]). In addition, the concentration giving a half-maximal response (EC50) with HIV-1/V(0.5) 103-Asn (setting [2]) is 0.04 mg/L (≈ 0.174 µM).
